Activity calls are given as the source filed them. The calls are words filed in the database; no cut-off is given here.
Legend:
[1] = target: T1, Liver carboxylesterase (Sus scrofa, UniProt Q29550); assay: Inhibition of porcine liver carboxylesterase using 4-nitrophenylacetate as substrate assessed as release of 4-nitrophenol at 20 uM by spectrophotometric analysis relative to control; conditions: pig, porcine liver carboxylesterase (isolated enzyme), probe 4-nitrophenylacetate
T1 sequence (Q29550 whole entry): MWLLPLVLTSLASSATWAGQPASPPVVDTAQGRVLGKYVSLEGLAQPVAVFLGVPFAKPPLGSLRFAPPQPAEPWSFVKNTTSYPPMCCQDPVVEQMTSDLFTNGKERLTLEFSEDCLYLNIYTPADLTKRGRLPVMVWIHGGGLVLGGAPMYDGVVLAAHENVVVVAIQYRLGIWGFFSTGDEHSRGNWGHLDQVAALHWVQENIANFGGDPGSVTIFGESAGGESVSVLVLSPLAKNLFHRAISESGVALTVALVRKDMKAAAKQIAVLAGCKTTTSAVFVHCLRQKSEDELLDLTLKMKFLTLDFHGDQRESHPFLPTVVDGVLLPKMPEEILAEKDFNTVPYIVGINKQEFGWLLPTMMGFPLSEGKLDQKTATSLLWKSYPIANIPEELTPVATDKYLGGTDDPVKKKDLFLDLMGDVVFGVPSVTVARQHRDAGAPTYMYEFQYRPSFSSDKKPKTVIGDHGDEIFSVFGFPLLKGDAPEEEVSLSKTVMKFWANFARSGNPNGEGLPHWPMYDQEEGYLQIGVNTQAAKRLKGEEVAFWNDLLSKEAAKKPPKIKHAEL

[2] = target: Cholinesterase (Equus caballus) (UniProt P81908); assay: Inhibition of equine serum butyrylcholinesterase using butyrylthiocholine as substrate at 20 uM by Ellman's method relative to control
[3] = Antioxidant activity assessed as trolox equivalent of ORAC radical scavenging activity at 10 uM measured for 2 hrs by AAPH based fluorescence microplate reader; format: functional
[4] = Antioxidant activity assessed as reduction in ABTS radical measured after 1 hrs by UV/Vis microplate spectrophotometric analysis; format: functional
[5] = Antioxidant activity assessed as ORAC radical scavenging activity by measuring fold change in trolox equivalent at 10 uM measured for 2 hrs by AAPH based fluorescence microplate reader relative to trolox; format: functional
[6] = target: Acetylcholinesterase (Homo sapiens) (UniProt P22303); assay: Inhibition of human erythrocyte acetylcholinesterase using acetylthiocholine as substrate at 20 uM by Ellman's method relative to control
[7] = Antioxidant activity assessed as ABTS radical scavenging activity by measuring trolox equivalent antioxidant capacity after 1 hrs by UV/Vis microplate spectrophotometric analysis; format: functional
[8] = Antioxidant activity assessed as trolox equivalent of FRAP radical scavenging activity measured after 1 hrs by spectrophotometric analysis; format: functional
[9] = Antioxidant activity against AAPH-induced oxidative stress in Sprague-Dawley rat erythrocytes assessed as inhibition of lipid peroxidation by measuring fold change at 100 uM preincubated for 15 mins followed by AAPH addition and measured after 3 hrs by TBARS assay (reference value: 1); format: functional, Erythrocyte; conditions: time 195 min, 3.25 h
[10] = Hemolytic activity in AAPH-induced Sprague-Dawley rat erythrocytes assessed as hemolysis at 100 uM measured after 3 hrs by microplate reader analysis relative to control; format: toxicity, cell-based, Erythrocyte; conditions: read-out: Activity
[11] = Metal chelating activity assessed as Fe2+-compound complex formation by measuring absorbance at 400 uM measured after 30 mins in presence of FeCl2.4H2O by UV-Vis spectroscopic analysis (reference value: 225 to 374 nanometer)
[12] = Antioxidant activity against AAPH-induced oxidative stress in Sprague-Dawley rat erythrocytes assessed as membrane stabilizing activity by measuring hemolysis at 100 uM preincubated for 15 mins followed by AAPH addition and measured after 3 hrs by microplate reader analysis (reference value: 88.6 +/- 3.7%); format: functional, Erythrocyte; conditions: time 195 min, 3.25 h
[13] = target: T1, Liver carboxylesterase; assay: Inhibition of porcine liver carboxylesterase using 4-nitrophenylacetate as substrate assessed as release of 4-nitrophenol by spectrophotometric analysis
[14] = Metal chelating activity assessed as Fe2+-compound complex formation by measuring absorbance at 400 uM measured after 30 mins in presence of FeCl2.4H2O by UV-Vis spectroscopic analysis (reference value: 245 to 373 nanometer)
[15] = target: T2, Cocaine esterase (Homo sapiens, UniProt O00748); assay: Inhibition of human CES2 using 4-nitrophenylacetate as substrate assessed as release of 4-nitrophenol by spectrophotometric analysis
T2 sequence (O00748 whole entry): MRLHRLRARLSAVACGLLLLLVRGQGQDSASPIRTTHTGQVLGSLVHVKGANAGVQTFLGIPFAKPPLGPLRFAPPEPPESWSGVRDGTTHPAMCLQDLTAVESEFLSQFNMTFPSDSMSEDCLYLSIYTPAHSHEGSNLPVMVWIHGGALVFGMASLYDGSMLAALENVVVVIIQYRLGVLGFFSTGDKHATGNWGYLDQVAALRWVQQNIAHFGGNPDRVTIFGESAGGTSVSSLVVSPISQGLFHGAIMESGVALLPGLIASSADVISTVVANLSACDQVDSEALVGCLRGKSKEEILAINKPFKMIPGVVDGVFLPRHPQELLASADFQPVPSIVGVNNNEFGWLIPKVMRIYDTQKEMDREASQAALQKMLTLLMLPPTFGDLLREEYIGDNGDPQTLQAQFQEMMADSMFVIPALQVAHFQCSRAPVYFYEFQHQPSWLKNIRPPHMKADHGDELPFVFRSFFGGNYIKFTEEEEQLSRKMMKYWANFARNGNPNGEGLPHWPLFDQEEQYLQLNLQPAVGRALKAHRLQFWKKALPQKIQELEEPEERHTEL

[16] = target: T1, Liver carboxylesterase; assay: Reversible mixed type inhibition of porcine liver carboxylesterase using 4-nitrophenylacetate as substrate assessed as inhibition constant of competitive component by Lineweaver-Burk plot analysis
[17] = target: T3, Liver carboxylesterase 1 (Homo sapiens, UniProt P23141); assay: Inhibition of human CES1 using 4-nitrophenylacetate as substrate assessed as release of 4-nitrophenol by spectrophotometric analysis
T3 sequence (P23141 whole entry): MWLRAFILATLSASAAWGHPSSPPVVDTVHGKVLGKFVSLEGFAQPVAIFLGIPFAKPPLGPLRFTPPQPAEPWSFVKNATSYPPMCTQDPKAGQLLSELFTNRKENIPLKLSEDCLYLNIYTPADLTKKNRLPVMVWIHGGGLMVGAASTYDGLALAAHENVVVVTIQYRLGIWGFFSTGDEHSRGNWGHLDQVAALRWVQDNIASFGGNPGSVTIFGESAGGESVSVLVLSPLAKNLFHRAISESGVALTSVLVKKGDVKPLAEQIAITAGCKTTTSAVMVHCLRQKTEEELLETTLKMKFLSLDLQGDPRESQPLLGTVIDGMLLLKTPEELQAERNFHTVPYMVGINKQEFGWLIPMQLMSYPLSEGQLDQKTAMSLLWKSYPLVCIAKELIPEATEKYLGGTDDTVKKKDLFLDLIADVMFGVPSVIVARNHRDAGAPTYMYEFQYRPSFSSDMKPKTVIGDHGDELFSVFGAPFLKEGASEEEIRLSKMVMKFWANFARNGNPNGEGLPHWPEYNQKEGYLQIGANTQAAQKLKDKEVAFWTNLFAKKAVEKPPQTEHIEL

[18] = target: T1, Liver carboxylesterase; assay: Reversible mixed type inhibition of porcine liver carboxylesterase using 4-nitrophenylacetate as substrate assessed as inhibition constant of non-competitive component by Lineweaver-Burk plot analysis
[19] = Metal chelating activity assessed as Fe2+-compound complex formation by measuring absorbance at 400 uM measured after 30 mins in presence of FeCl2.4H2O by UV-Vis spectroscopic analysis (reference value: 253 to 384 nanometer)

Sequence of Cholinesterase (Equus caballus) (P81908 whole entry): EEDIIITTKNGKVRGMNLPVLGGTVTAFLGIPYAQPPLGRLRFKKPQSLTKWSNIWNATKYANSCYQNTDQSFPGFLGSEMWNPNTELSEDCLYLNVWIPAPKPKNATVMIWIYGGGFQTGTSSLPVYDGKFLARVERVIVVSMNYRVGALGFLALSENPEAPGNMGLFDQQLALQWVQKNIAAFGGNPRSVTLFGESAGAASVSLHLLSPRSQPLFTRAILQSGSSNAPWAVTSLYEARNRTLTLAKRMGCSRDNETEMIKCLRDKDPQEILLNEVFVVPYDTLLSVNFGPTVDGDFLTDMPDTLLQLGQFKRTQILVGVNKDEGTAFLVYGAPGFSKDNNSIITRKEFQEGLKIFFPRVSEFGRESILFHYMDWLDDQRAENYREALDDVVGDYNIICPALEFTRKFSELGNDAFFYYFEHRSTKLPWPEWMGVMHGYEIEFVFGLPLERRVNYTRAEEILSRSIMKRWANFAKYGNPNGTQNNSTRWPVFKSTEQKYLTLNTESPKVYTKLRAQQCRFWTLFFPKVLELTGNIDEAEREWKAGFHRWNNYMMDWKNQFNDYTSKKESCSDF
Sequence of Acetylcholinesterase (Homo sapiens) (P22303 whole entry): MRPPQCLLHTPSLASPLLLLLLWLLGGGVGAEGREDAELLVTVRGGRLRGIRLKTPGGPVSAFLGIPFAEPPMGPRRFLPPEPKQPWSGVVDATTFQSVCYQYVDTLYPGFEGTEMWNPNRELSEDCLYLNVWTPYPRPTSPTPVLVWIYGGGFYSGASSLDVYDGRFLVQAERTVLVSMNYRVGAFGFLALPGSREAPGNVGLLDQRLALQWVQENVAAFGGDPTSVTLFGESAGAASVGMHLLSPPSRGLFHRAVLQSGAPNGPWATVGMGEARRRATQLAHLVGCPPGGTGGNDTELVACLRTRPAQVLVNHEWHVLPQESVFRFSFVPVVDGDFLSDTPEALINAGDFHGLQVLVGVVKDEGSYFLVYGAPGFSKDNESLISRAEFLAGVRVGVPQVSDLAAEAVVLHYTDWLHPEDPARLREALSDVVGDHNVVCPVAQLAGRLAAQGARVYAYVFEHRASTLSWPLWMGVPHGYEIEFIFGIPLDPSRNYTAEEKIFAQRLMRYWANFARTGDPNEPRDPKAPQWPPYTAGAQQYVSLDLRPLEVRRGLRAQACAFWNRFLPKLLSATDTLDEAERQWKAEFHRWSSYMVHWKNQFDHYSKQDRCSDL

Row | SMILES | inhibition [2] | Activity [3] | IC50 [4] | fold change (FC) [5] | inhibition [6] | Activity [7] | Activity [8] | IC50 [13] | also measured
1 | CC(=O)/C(=N/Nc1ccc(C(=O)O)cc1)C(=O)O | 8.2% | 2.2 | 10.3 µM | > 3 | 5.8% | 1.25 | 0.41 | – | inhibition at 20 µM [1]: 18.6%
2 | CC(=O)/C(=N/Nc1ccccc1)C(=O)O | inactive | 3.43 | 9.8 µM | > 3 | 4.7% | 1.6 | 0.79 | – | inhibition at 20 µM [1]: 17.9%
3 | COc1ccc(N/N=C(\C(=O)O)C(=O)C(F)(F)F)cc1 | – | 3.6 | – | > 3 | – | – | 2.77 | – | fold change (FC) [9]: 0.64; hemolysis at 3 h, 100 µM [10]: 2%; Activity [11]: 267 nm; Activity [12]: 58.6%
4 | O=[N+]([O-])c1ccc(OP(=O)(O)Oc2ccc([N+](=O)[O-])cc2)cc1 | inactive | – | – | – | inactive | – | – | – | –
5 | CC(=O)/C(=N/Nc1ccc(C)cc1)C(=O)O | – | 3.37 | – | > 3 | – | – | 1.69 | – | –
6 | Cc1ccc(N/N=C(\C(=O)O)C(=O)C(F)(F)C(F)F)cc1 | 5.7% | – | 9.3 µM | > 3 | inactive | 1.7 | 1.69 | 5.58 µM | –
7 | Cc1ccc(N/N=C(\C(=O)O)C(=O)C(F)(F)C(F)(F)C(F)(F)F)cc1 | 11.6% | 3.27 | 9.1 µM | > 3 | 14.7% | 1.97 | 0.68 | 0.047 µM | –
8 | CCOC(=O)c1ccccc1N/N=C(\C(=O)O)C(=O)C(F)(F)C(F)(F)C(F)(F)C(F)(F)F | 13.7% | 1.7 | – | > 3 | 24% | 0.02 | – | 0.14 µM | –
9 | CCOC(=O)c1ccc(N/N=C(\C(=O)O)C(=O)C(F)(F)F)cc1 | – | – | – | > 3 | – | – | – | – | –
10 | Cc1c(C)c2c(c(C)c1O)CCC(C)(C(=O)O)O2 (configuration not stated) [TROLOX] | – | 1 | 20.4 µM | – | – | 1 | 1 | – | fold change (FC) [9]: 0.85; Activity [12]: 56.7%
11 | O=C(O)/C(=N\Nc1ccccc1)C(=O)C(F)(F)F | 4% | 3.7 | 8.6 µM | > 3 | 16.5% | 1.6 | 1.48 | 0.75 µM | –
12 | COc1ccc(N/N=C(/C(C)=O)C(=O)O)cc1 | – | 3.67 | – | > 3 | – | – | 2.5 | – | fold change (FC) [9]: 0.24; hemolysis at 3 h, 100 µM [10]: 2%; Activity [14]: 263 nm; Activity [12]: 45.6%
13 | Cc1ccc(N/N=C(\C(=O)O)C(=O)C(F)(F)C(F)(F)F)cc1 | 15.5% | 3.7 | 9.9 µM | > 3 | 10.2% | 1.45 | 1.71 | 0.122 µM | –
14 | Cc1ccc(N/N=C(\C(=O)O)C(=O)C(F)F)cc1 | inactive | 3.13 | 9.8 µM | > 3 | 10.2% | 1.67 | 2.1 | – | inhibition at 20 µM [1]: 23.8%
15 | Cc1ccc(N/N=C(\C(=O)O)C(=O)C(F)(F)C(F)(F)C(F)(F)C(F)(F)F)cc1 | inactive | 3.2 | 10.9 µM | > 3 | 9.8% | 1.37 | 0.14 | 0.042 µM | IC50 [15]: 0.109 µM; Ki [16]: 0.018 µM; IC50 [17]: 0.102 µM; Ki [18]: 0.027 µM
16 | CCOC(=O)c1ccc(N/N=C(/C(C)=O)C(=O)O)cc1 | inactive | 0.47 | 10.2 µM | – | inactive | 1.36 | 0.19 | – | inhibition at 20 µM [1]: 16.1%
17 | Cc1ccc(N/N=C(\C(=O)O)C(=O)C(F)(F)F)cc1 | – | 3.03 | – | > 3 | – | – | 2.63 | – | IC50 [15]: 0.097 µM; IC50 [17]: 0.921 µM
18 | CCOC(=O)c1ccccc1N/N=C(\C(=O)O)C(=O)C(F)(F)F | – | – | – | > 3 | – | – | – | – | –
19 | COc1ccc(N/N=C(\C(=O)O)C(=O)C(F)(F)C(F)F)cc1 | 3.5% | 3.73 | 10.2 µM | > 3 | 4.2% | 1.8 | 1.9 | 52.1 µM | –
20 | COc1ccc(N/N=C(\C(=O)O)C(=O)C(F)(F)C(F)(F)C(F)(F)C(F)(F)F)cc1 | 19.9% | 3.87 | 9.5 µM | > 3 | 4.4% | 1.9 | 1.68 | 0.297 µM | –
21 | COc1ccc(N/N=C(\C(=O)O)C(=O)C(F)(F)C(F)(F)C(F)(F)F)cc1 | 13.4% | 3.67 | 8.2 µM | > 3 | 19.4% | 2.1 | 1.86 | 0.096 µM | fold change (FC) [9]: 0.63; hemolysis at 3 h, 100 µM [10]: 2%; Activity [19]: 271 nm; Activity [12]: 95.9%
22 | O=C(O)/C(=N\Nc1ccc([N+](=O)[O-])cc1)C(=O)C(F)(F)F | – | – | – | > 3 | – | – | 0.24 | – | –

From ChEMBL document CHEMBL6087406, “2-Arylhydrazinylidene-3-oxo-3-polyfluoroalkylpropanoic acids as selective and effective carboxylesterase inhibitors with powerful antioxidant potential” (Bioorg Med Chem, 2024)
